Results as given in patent publication US20060172357A1, “Detecting human antibodies in non-human serum” (Genentech, priority 2004, published 2006).
Where two headings read alike, the source gives them in different places. The star is where a group is joined. Biotin = O=C1N[C@H]2[C@H](CS[C@H]2CCCCC(=O)*)N1

Experiments:
rhuMAb2H7 [1] = conditions: apparent equilibrium dissociation constant; Method 1; peptide immobilized on streptavidin chip, 2H7-IgG injected
Description: In the first method, affinities were measured with a Biacore 3000 on a strepavidin chip using either immobilized mono-biotinylated CD20-35 mer at 95 RU, or mono-biotinylated CD20-51 mer at 94 RU, where RU is a relative surface plasmon resonance unit based upon an arbitrary scale. The running buffer was HBS-EP flowing at 50 μL/min with 25 μl of 10 mM Glycine-HCl, and a pH of 2.5 for the regeneration. 2H7-IgG was injected, and the resulting data was fit to a 1:1 binding model with Biaevaluation 3.0 software (Biacore AB, Uppsala, Sweden) to get the apparent equilibrium dissociation constants.

rhuMAb2H7 [2] = conditions: apparent affinity; Method 2; peptide immobilized on streptavidin chip, 2H7-IgG injected, bivalent analyte model
Description: In the second method, affinities were measured with a Biacore 3000 on a strepavidin chip using either immobilized CD20-35 mer, bis(biotin)) at 685 RU, CD20(51-mer, mono(biotin)) at 1637 RU, or CD20(51-mer, bis(biotin)) at 1037 RU.
PBS/Tween/azide was used as the running buffer, at 20 μL/minute, with 20 mM HCl for regeneration. 2H7-IgG was injected, and the resulting data was fit to a bivalent analyte model.

CD20 full Length = molecular target: T1, CD20 full Length (Homo sapiens, UniProt P11836); assay: ELISA using full-length CD20 molecule as the capture reagent; assay type: binding; conditions: N 8
T1 construct: MKHQHQQ leader (N); octa-His (C); made in house; host or cells: E. coli
T1 sequence (P11836 1-297): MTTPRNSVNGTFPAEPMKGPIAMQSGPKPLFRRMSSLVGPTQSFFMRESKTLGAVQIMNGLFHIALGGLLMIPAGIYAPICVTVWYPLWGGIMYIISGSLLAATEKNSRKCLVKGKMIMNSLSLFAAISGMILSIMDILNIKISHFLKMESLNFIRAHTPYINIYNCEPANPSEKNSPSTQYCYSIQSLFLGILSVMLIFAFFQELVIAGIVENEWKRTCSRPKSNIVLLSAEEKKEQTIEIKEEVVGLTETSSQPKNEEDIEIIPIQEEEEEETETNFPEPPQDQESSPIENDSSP
Description: […] The plate was then washed for 3 times with the washing buffer (PBS with 0.05% polysorbate-20). Blocking buffer (200 μl) was added and the plate was sealed and incubated at room temperature for 2 hours with a gentle agitation. […] After incubating at room temperature for another hour with a gentle agitation, the plate was washed again with the washing buffer for six times and blotted dry. A volume of 100 μl of the detection agent diluted with the detection agent diluent was added and the plate was sealed and incubated at room temperature for one hour with a gentle agitation. The plate was then washed for another six times and blotted dry before the addition of 100 μl of an equal volume of TMB and H2O2. After incubating at room temperature for 15 minutes without agitation, the reaction was stopped by adding another 100 μl of 1 M H3PO4. The absorbance at 450 nm subtracted of that at 650 nm was read from the Spectra Max250 plate reader (Molecular Devices Corporation, Sunnyvale, Calif.), and the data were processed using SoftmaxPro (Molecular Devices Corporation, Sunnyvale, Calif.).

Substance	Kd (rhuMAb2H7 [1])	Kd (rhuMAb2H7 [2])	also measured
Biotin-GKISHFLKMESLNFIRAHTPYINIYNCEPANPSEKNSPSTQYCYSIQSGGK-NH2 (cysteine pairing not given here) [Mono-CD20-51 mer]	47 nM	130 nM	–
Biotin-FIRAHTPYINIYNCEPANPSEKNSPSTQYCYSGGK(Biotin)-NH2 (cysteine pairing not given here) [Bis-CD20-35mer]	–	500 nM	–
Biotin-FIRAHTPYINIYNCEPANPSEKNSPSTQYCYSGGK-NH2 (cysteine pairing not given here) [Mono-CD20-35mer]	41700 nM	–	–
Rituxan: anti-CD20 antibody, generated as disclosed in U.S. Pat. No 5,736,137	–	–	signal of 247 ng/ml of antibody (CD20 full Length; capture reagent 1 μg/mL in PBS, detection Goat anti-hu F(ab′)2 HRP): 0.065 O.D.450 nm; signal of 247 ng/ml of antibody (CD20 full Length; capture reagent 1 μg/mL in PBS, detection Sheep anti-hu IgG HRP (Monkey Adsorbed)): 0.012 O.D.450 nm; signal of 247 ng/ml of antibody (CD20 full Length; capture reagent 5 μg/mL in PBS, detection Goat anti-hu F(ab′)2 HRP): 0.166 O.D.450 nm; signal of 247 ng/ml of antibody (CD20 full Length; capture reagent 5 μg/mL in PBS, detection Sheep anti-hu IgG HRP (Monkey Adsorbed)): 0.023 O.D.450 nm
Biotin GKISHFLKMESLNFIRAHTPYINIYNCEPANPSEKNSPSTQYCYSIQSGGK (Biotin)-amide [Bis-CD20-51mer]	–	110 nM	–
